Counter-ions that a name gives are not always drawn.

T1 sequence (Q7Z2W7 whole entry): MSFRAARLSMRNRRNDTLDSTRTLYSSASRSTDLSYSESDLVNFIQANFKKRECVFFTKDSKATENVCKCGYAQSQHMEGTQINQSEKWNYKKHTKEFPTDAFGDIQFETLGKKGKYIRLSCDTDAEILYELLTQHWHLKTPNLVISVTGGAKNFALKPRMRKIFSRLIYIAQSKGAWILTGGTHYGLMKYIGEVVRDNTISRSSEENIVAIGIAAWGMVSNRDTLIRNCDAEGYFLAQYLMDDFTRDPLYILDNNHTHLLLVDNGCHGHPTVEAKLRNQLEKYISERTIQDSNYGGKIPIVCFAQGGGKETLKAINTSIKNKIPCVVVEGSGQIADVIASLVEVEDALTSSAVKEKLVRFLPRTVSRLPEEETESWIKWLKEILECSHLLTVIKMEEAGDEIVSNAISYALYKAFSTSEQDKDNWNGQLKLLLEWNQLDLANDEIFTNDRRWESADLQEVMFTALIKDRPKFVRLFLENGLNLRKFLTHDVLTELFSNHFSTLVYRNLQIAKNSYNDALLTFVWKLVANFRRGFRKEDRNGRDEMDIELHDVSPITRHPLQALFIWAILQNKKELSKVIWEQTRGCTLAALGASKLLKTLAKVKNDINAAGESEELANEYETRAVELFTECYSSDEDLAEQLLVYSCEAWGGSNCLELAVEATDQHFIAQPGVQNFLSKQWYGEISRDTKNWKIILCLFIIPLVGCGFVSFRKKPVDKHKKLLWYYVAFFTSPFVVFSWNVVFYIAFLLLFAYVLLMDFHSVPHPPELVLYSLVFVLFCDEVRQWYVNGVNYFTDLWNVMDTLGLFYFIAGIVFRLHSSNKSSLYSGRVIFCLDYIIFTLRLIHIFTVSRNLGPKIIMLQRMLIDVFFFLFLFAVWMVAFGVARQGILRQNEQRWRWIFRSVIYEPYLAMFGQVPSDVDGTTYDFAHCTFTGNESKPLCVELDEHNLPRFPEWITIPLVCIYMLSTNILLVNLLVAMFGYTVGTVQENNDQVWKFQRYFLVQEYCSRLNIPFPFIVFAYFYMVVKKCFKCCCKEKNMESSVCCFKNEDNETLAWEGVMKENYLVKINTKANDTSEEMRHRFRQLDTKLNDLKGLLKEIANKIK

One test has as its target T1, human TRPM8 (Homo sapiens, UniProt Q7Z2W7).
T1 construct: expressed in transfected cells; host or cells: Chinese hamster ovary (CHO) cells, T-REx tetracycline-inducible expression system (Invitrogen); co-transfected with pcDNA3.1 aequorin
As to the kind of experiment: Luminescence readout assay for measuring intracellular calcium (aequorin, CHO cells expressing human TRPM8; icilin, L-menthol or cold activation). The test is classed as cell-based.
Details: not given
A digest of the protocol:
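Activation was by 1 μM icilin, 100 μM L-menthol (test compound 2.5 min ahead) or cold buffer below 10° C (compound 1 min ahead). Calcium rise measured as aequorin luminescence in CHO cells with tetracycline-inducible human TRPM8.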
On the technique in general: Calcium flux is commonly read through the fluorescence of an indicator in the cells.
For orientation: IC50 means the point on the concentration scale where inhibition reaches its midpoint. For `O=C(N[C@]1(c2ccc(OC(F)(F)F)cc2)CCOc2cccnc21)c1ccc2[nH]cnc2c1` [Example 237, (S)-N-(4-(4-(trifluoromethoxy)phenyl)-3,4-dihydro-2H-pyrano[3,2-b]pyridin-4-yl)1lH-benzo[d]imidazole-5-carboxamide formate], the IC50 was 4.07 nM.

The same test, now with this note: CHO cells expressing human TRPM8, icilin activation (1 μM), aequorin luminescence; read-out: hTRPM8 IC50.
With `Cn1cnc(C(=O)N[C@]2(c3ccc(OC(F)(F)F)c(F)c3)CCOc3cccnc32)c1` [Example 179, (S)-N-(4-(3-fluoro-4-(trifluoromethoxy)phenyl)-3,4-dihydro-2H-pyrano[3,2-b]pyridin-4-yl)-1-methyl-1H-imidazole-4-carboxamide], the IC50 was 305 nM. As to `O=C(Nc1ccccn1)N[C@]1(c2ccc(OC(F)(F)F)c(F)c2)CCOc2cccnc21` [Example 95, (S)-1-(4-(3-fluoro-4-(trifluoromethoxy)phenyl)-3,4-dihydro-2H-pyrano[3,2-b]pyridin-4-yl)-3-(pyridin-2-yl)urea], the IC50 was determined as 94 nM.

`COC(=O)C1CCN(C(=O)N[C@]2(c3ccc(OC(F)(F)F)c(F)c3)CCOc3cccnc32)CC1` [Example 99, (S)-methyl 1-((4-(3-fluoro-4-(trifluoromethoxy)phenyl)-3,4-dihydro-2H-pyrano[3,2-b]pyridin-4-yl)carbamoyl)piperidine-4-carboxylate]: the concentration for half-maximal inhibition (IC50) was determined as 106 nM. `O=S(=O)(N[C@]1(c2ccc(OC(F)(F)F)c(F)c2)CCOc2cccnc21)c1ccccc1` [Example 76, (S)—N-(4-(3-fluoro-4-(trifluoromethoxy)phenyl)-3,4-dihydro-2H-pyrano[3,2-b]pyridin-4-yl)benzenesulfonamide 2,2,2-trifluoroacetate]: the IC50 turned out to be 206 nM. On the same count and under the same terms, the result for `COc1cc(C(=O)N[C@]2(c3ccc(OC(F)(F)F)c(F)c3)CCOc3cccnc32)ccc1C(=O)O` [Example 337, (S)-4-((4-(3-fluoro-4-(trifluoromethoxy)phenyl)-3,4-dihydro-2H-pyrano[3,2-b]pyridin-4-yl)carbamoyl)-2-methoxybenzoic acid] reads 70 nM; that for `O=C(Nc1cccnc1)N[C@]1(c2ccc(OC(F)(F)F)c(F)c2)CCOc2cccnc21` [Example 92, (S)-1-(4-(3-fluoro-4-(trifluoromethoxy)phenyl)-3,4-dihydro-2H-pyrano[3,2-b]pyridin-4-yl)-3-(pyridin-3-yl)urea], 54 nM. On the same count and under the same terms, the result for `Cc1cc(C(=O)N[C@]2(c3ccc(OC(F)(F)F)c(F)c3)CCOc3cccnc32)cc(C)c1C(=O)O` [Example 311, (S)-4-((4-(3-fluoro-4-(trifluoro-methoxy)phenyl)-3,4-dihydro-2H-pyrano[3,2-b]pyridin-4-yl)carbamoyl)-2,6-dimethylbenzoic acid] reads 155 nM; that for `O=C(N[C@]1(c2ccc(F)cc2)CCOc2cccnc21)c1ccccc1` (single isomer, unassigned) [Example 16], 357 nM. Same read-out and setting: the result for `O=C(N[C@]1(c2ccc(C(F)(F)F)cc2)CCOc2cccnc21)c1ccnnc1` [Example 37, (S)-N-(4-(4-(trifluoromethyl)phenyl)-3,4-dihydro-2H-pyrano[3,2-b]pyridin-4-yl)pyridazine-4-carboxamide] reads 2620 nM. In the case of `O=C(N[C@]1(c2ccc(-c3cccnc3)cc2)CCOc2cccnc21)c1ccc(F)cc1` [Example 115, (S)-4-fluoro-N-(4-(4-(pyridin-3-yl)phenyl)-3,4-dihydro-2H-pyrano[3,2-b]pyridin-4-yl)benzamide], the IC50 turned out to be 341 nM. Still for that read-out and setting: the result for `O=C(N[C@]1(c2ccc(OC(F)(F)F)cc2)CCOc2cccnc21)c1nnc[nH]1` [Example 212, (S)-N-(4-(4-(trifluoromethoxy)phenyl)-3,4-dihydro-2H-pyrano[3,2-b]pyridin-4-yl)-4H-1,2,4-triazole-3-carboxamide formate] reads 1690 nM. Same read-out and setting: the result for `COC(=O)c1ccc(NC(=O)N[C@]2(c3ccc(OC(F)(F)F)c(F)c3)CCOc3cccnc32)cc1` [Example 90, (S)-methyl 4-(3-(4-(3-fluoro-4-(trifluoromethoxy)phenyl)-3,4-dihydro-2H-pyrano[3,2-b]pyridin-4-yl)ureido)benzoate] reads 36 nM.

For the molecule `O=C(N[C@]1(c2ccc(-c3ccccc3CO)cc2)CCOc2cccnc21)c1ccc(F)cc1` [Example 128, (S)-4-fluoro-N-(4-(2′-(hydroxymethyl)-[1,1′-biphenyl]-4-yl)-3,4-dihydro-2H-pyrano[3,2-b]pyridin-4-yl)benzamide], the IC50 came out at 501 nM. Still for that read-out and setting: the same measure for `Nc1ccc(-c2ccc([C@@]3(NC(=O)c4ccc(F)cc4)CCOc4cccnc43)cc2)cc1` [Example 147, (S)-N-(4-(4′-amino-[1,1′-biphenyl]-4-yl)-3,4-dihydro-2H-pyrano[3,2-b]pyridin-4-yl)-4-fluorobenzamide]: 1530 nM. Same read-out and setting: the result for `Nc1ccccc1-c1ccc([C@@]2(NC(=O)c3ccc(F)cc3)CCOc3cccnc32)cc1` [Example 143, (S)-N-(4-(2′-amino-[1,1′-biphenyl]-4-yl)-3,4-dihydro-2H-pyrano[3,2-b]pyridin-4-yl)-4-fluorobenzamide] reads 176 nM; that for `O=C(Nc1ccc(C(=O)O)cc1)N[C@]1(c2ccc(OC(F)(F)F)c(F)c2)CCOc2cccnc21` [Example 108, (S)-4-(3-(4-(3-fluoro-4-(trifluoromethoxy)phenyl)-3,4-dihydro-2H-pyrano[3,2-b]pyridin-4-yl)ureido)benzoic acid], 386 nM.

Regarding `COC(=O)c1ccc(C(=O)NC2(c3ccc(OC(F)(F)F)c(F)c3)CCOc3cccnc32)nc1` (centres unmarked) [Example 30, methyl 6-((4-(3-fluoro-4-(trifluoromethoxy)phenyl)-3,4-dihydro-2H-pyrano[3,2-b]pyridin-4-yl)carbamoyl)nicotinate], the IC50 worked out at 19 nM. For `O=C(N[C@]1(c2ccc(OC(F)(F)F)c(F)c2)CCOc2cccnc21)c1ccc(-c2nn[nH]n2)cn1` [Example 281, (S)—N-(4-(3-fluoro-4-(trifluoromethoxy)phenyl)-3,4-dihydro-2H-pyrano[3,2-b]pyridin-4-yl)-5-(2H-tetrazol-5-yl)picolinamide], the IC50 is 51 nM. On the same count and under the same terms, the result for `O=C(N[C@]1(c2ccc(C(F)(F)F)cc2)CCOc2cccnc21)c1ccns1` [Example 41, (S)-N-(4-(4-(trifluoromethyl)phenyl)-3,4-dihydro-2H-pyrano[3,2-b]pyridin-4-yl)isothiazole-5-carboxamide] reads 87 nM. Same read-out and setting: the result for `COc1c(C(=O)O)cccc1C(=O)N[C@]1(c2ccc(OC(F)(F)F)c(F)c2)CCOc2cccnc21` [Example 186, (S)-3-((4-(3-fluoro-4-(trifluoromethoxy)phenyl)-3,4-dihydro-2H-pyrano[3,2-b]pyridin-4-yl)carbamoyl)-2-methoxybenzoic acid] reads 66 nM; that for `Cn1c(C(=O)N[C@]2(c3ccc(OC(F)(F)F)cc3)CCOc3cccnc32)cc2ccccc21` [Example 256, (S)-1-methyl-N-(4-(4-(trifluoromethoxy)phenyl)-3,4-dihydro-2H-pyrano[3,2-b]pyridin-4-yl)-1H-indole-2-carboxamide formate], 48 nM. The same measure, in the same setting: the result for `O=C(N[C@]1(c2ccc(C(F)(F)F)cc2)CCOc2ccccc21)c1ccccc1` (single isomer, unassigned) [Example 28] reads 1660 nM; that for `COc1cc(-c2ccc([C@@]3(NC(=O)c4ccc(F)cc4)CCOc4cccnc43)cc2)ccn1` [Example 146, (S)-4-fluoro-N-(4-(4-(2-methoxypyridin-4-yl)phenyl)-3,4-dihydro-2H-pyrano[3,2-b]pyridin-4-yl)benzamide], 88 nM; that for `N#Cc1ccc(C(=O)N[C@]2(c3ccc(OC(F)(F)F)c(F)c3)CCOc3cccnc32)nc1` [Example 171, (S)-5-cyano-N-(4-(3-fluoro-4-(trifluoromethoxy)phenyl)-3,4-dihydro-2H-pyrano[3,2-b]pyridin-4-yl) picolinamide], 12 nM. Take `COC(=O)c1ccc(C(=O)N[C@]2(c3ccc(OC(F)(F)F)cc3F)CCOc3cccnc32)nc1` [Example 174, (S)-methyl 6-((4-(2-fluoro-4-(trifluoromethoxy)phenyl)-3,4-dihydro-2H-pyrano[3,2-b]pyridin-4-yl)carbamoyl) nicotinate]: the IC50 was 128 nM. Same read-out and setting: the result for `O=C(N[C@]1(c2ccc(Cl)cc2)CCOc2cccnc21)c1ccccc1` (single isomer, unassigned) [Example 14] reads 91 nM; that for `O=C(N[C@]1(c2ccc(OC(F)(F)F)cc2)CCOc2cccnc21)c1ccnc2[nH]ccc12` [Example 218, (S)-N-(4-(4-(trifluoromethoxy)phenyl)-3,4-dihydro-2H-pyrano[3,2-b]pyridin-4-yl)-1H-pyrrolo[2,3-b] pyridine-4-carboxamide formate], 10 nM. Still for that read-out and setting: the same measure for `O=C(N[C@]1(c2ccc(OC(F)(F)F)c(F)c2)CCOc2nccnc21)c1ccc(=O)[nH]c1` [Example 164, (S)-N-(8-(3-fluoro-4-(trifluoromethoxy)phenyl)-7,8-dihydro-6H-pyrano[2,3-b]pyrazin-8-yl)-6-oxo-1,6-dihydropyridine-3-carboxamide]: 2230 nM.

The values above are taken from patent US20150031668A1, “CHROMAN DERIVATIVES AS TRPM8 INHIBITORS” (AMGEN INC., priority 2013, published 2015).
